# From patent US5304540A, “Pharmaceutical bacteriocin compositions and methods for using the same” (Applied Microbiology, Inc., priority 1993, dated 1994)
# Where two headings read alike, the source gives them in different places.
# Legend:
# Escherichia coli = assay: Germicidal suspension assay, E. coli; type: cell-based; details: for % survival at 1 min: 37° C., nisin 100 μg/ml and/or EDTA 1.0 mM where present;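 as to all read-outs here: surviving cells were scored as colonies on nutrient agar after 24 h at 37° C, survival given as percent of untreated controls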
# Description: E. coli cells from an overnight Trypticase soy nutrient agar (TSA) were resuspended to a density measured as an absorbance of 1.0 at 600 nm in sterile ddH2 O. The reaction of the cells with each of the bactericidal test formulations analyzed was started by addition of 30 μl of cells to 970 μl of test formulation. The reaction mixture was incubated at 37° C for at least 1 minute and then centrifuged in a microfuge for 1 minute. The cell pellet was washed by resuspension in 1 ml of neutralization buffer. (The neutralization buffer: 50 mM Tris-HCl, pH 7.0, 5 mM MgSO4, 20 mM CaCl2, 0.1 M NaCl and 0.1% gelatin was prepared by first making Tris buffer and adjusting the pH. The salts and gelatin were then added and the solution stirred with heat until the solution was clear. The solution was then autoclaved for 20 min. The neutralization buffer was used without dilution.) The cells were centrifuged in a microfuge for 1 minute and resuspended in 1 ml of neutralization buffer. The viable count was determined by spreading 100 μl of bacterial suspension and serial dilutions thereof in neutralization buffer on nutrient agar and scoring surviving colonies after 24 h at 37° C. Percent survival relative to untreated controls was calculated from the scored values.
smiles,measurement,setting,value
CC(=O)O [Acetate],% survival at 1 min,"Escherichia coli; 0.1% w/v acetate pH 3.5, initial 2 × 10^7 cfu/ml",55%
same,% survival at 1 min,"Escherichia coli; 0.3% w/v acetate pH 3.5, initial 2 × 10^7 cfu/ml",80%
same,% survival at 1 min,"Escherichia coli; 1.0% w/v acetate pH 3.5, initial 2 × 10^7 cfu/ml",90%
same,% survival at 1 min,"Escherichia coli; 3.0% w/v acetate pH 3.5, initial 2 × 10^7 cfu/ml",10.1%
O=C(O)CC(O)(CC(=O)O)C(=O)O [Citrate],% survival at 5 min,"Helicobacter pylori; strain ATCC43504, 0.1% citrate adjusted to pH 2.5, nisin 100 μg/ml where present, 37° C.",0.14%
same,% survival at 5 min,"Helicobacter pylori; strain ATCC43504, 0.1% citrate adjusted to pH 3.0, nisin 100 μg/ml where present, 37° C.",< 0.004%
same,% survival at 5 min,"Helicobacter pylori; strain ATCC43504, 0.1% citrate adjusted to pH 3.5, nisin 100 μg/ml where present, 37° C.",< 0.004%
same,% survival at 5 min,"Helicobacter pylori; strain ATCC43504, 0.1% citrate adjusted to pH 4.0, nisin 100 μg/ml where present, 37° C.",0.36%
same,% survival at 5 min,"Helicobacter pylori; strain ATCC43504, 0.1% citrate adjusted to pH 5.0, nisin 100 μg/ml where present, 37° C.",68.5%
same,% survival at 5 min,"Helicobacter pylori; strain ATCC43504, 0.3% citrate adjusted to pH 2.5, nisin 100 μg/ml where present, 37° C.",0.027%
same,% survival at 5 min,"Helicobacter pylori; strain ATCC43504, 0.3% citrate adjusted to pH 3.0, nisin 100 μg/ml where present, 37° C.",< 0.027%
same,% survival at 5 min,"Helicobacter pylori; strain ATCC43504, 0.3% citrate adjusted to pH 3.5, nisin 100 μg/ml where present, 37° C.",29.7%
same,% survival at 5 min,"Helicobacter pylori; strain ATCC43504, 0.3% citrate adjusted to pH 4.0, nisin 100 μg/ml where present, 37° C.",17.6%
same,% survival at 5 min,"Helicobacter pylori; strain ATCC43504, 0.3% citrate adjusted to pH 5.0, nisin 100 μg/ml where present, 37° C.",100%
same,% survival at 5 min,"Helicobacter pylori; strain ATCC43504, pH 5.0, citrate 0.1% w/v, nisin 100 μg/ml where present, first of two experiments (initial 1.40 × 10^5 cfu/ml)",83.6%
same,% survival at 5 min,"Helicobacter pylori; strain ATCC43504, pH 5.0, citrate 0.1% w/v, nisin 100 μg/ml where present, second of two experiments (initial 3.26 × 10^5 cfu/ml)",25.8%
same,% survival at 5 min,"Helicobacter pylori; strain ATCC43504, pH 5.0, citrate 0.3% w/v, nisin 100 μg/ml where present, first of two experiments (initial 1.40 × 10^5 cfu/ml)",42.9%
same,% survival at 5 min,"Helicobacter pylori; strain ATCC43504, pH 5.0, citrate 0.3% w/v, nisin 100 μg/ml where present, second of two experiments (initial 3.26 × 10^5 cfu/ml)",4.39%
same,% survival at 5 min,"Helicobacter pylori; strain ATCC43504, pH 5.0, citrate 1.0% w/v, nisin 100 μg/ml where present, first of two experiments (initial 1.40 × 10^5 cfu/ml)",22.1%
same,% survival at 5 min,"Helicobacter pylori; strain ATCC43504, pH 5.0, citrate 1.0% w/v, nisin 100 μg/ml where present, second of two experiments (initial 3.26 × 10^5 cfu/ml)",50.9%
same,% survival at 5 min,"Helicobacter pylori; strain ATCC43504, pH 7.0, citrate 0.1% w/v, nisin 100 μg/ml where present, initial 9.62 × 10^4 cfu/ml",17.7%
same,% survival at 5 min,"Helicobacter pylori; strain ATCC43504, pH 7.0, citrate 0.3% w/v, nisin 100 μg/ml where present, initial 9.62 × 10^4 cfu/ml",8.94%
same,% survival at 5 min,"Helicobacter pylori; strain ATCC43504, pH 7.0, citrate 1.0% w/v, nisin 100 μg/ml where present, initial 9.62 × 10^4 cfu/ml",0.82%
same,% survival at 5 min,"Helicobacter pylori; strain ATCC43579, 0.1% citrate adjusted to pH 2.5, nisin 100 μg/ml where present, 37° C.",< 5.0 × 10^-4%
same,% survival at 5 min,"Helicobacter pylori; strain ATCC43579, 0.1% citrate adjusted to pH 3.0, nisin 100 μg/ml where present, 37° C.",1.1 × 10^-3%
same,% survival at 5 min,"Helicobacter pylori; strain ATCC43579, 0.1% citrate adjusted to pH 3.5, nisin 100 μg/ml where present, 37° C.",0.18%
same,% survival at 5 min,"Helicobacter pylori; strain ATCC43579, 0.1% citrate adjusted to pH 4.0, nisin 100 μg/ml where present, 37° C.",9.56%
same,% survival at 5 min,"Helicobacter pylori; strain ATCC43579, 0.1% citrate adjusted to pH 5.0, nisin 100 μg/ml where present, 37° C.",97.2%
same,% survival at 5 min,"Helicobacter pylori; strain ATCC43579, pH 5.0, 0.1% citrate, nisin 0, 37° C., initial 3.19 × 10^7 cfu/ml",86.2%
same,% survival at 5 min,"Helicobacter pylori; strain ATCC43579, pH 5.0, citrate 0.1% w/v, nisin 100 μg/ml where present, initial 1.04 × 10^4 cfu/ml",100%
same,% survival at 5 min,"Helicobacter pylori; strain ATCC43579, pH 5.0, citrate 0.3% w/v, nisin 100 μg/ml where present, initial 1.04 × 10^4 cfu/ml",100%
same,% survival at 5 min,"Helicobacter pylori; strain ATCC43579, pH 5.0, citrate 1.0% w/v, nisin 100 μg/ml where present, initial 1.04 × 10^4 cfu/ml",100%
same,% survival at 5 min,"Helicobacter pylori; strain ATCC43579, pH 7.0, citrate 0.1% w/v, nisin 100 μg/ml where present",12.1%
same,% survival at 5 min,"Helicobacter pylori; strain ATCC43579, pH 7.0, citrate 0.3% w/v, nisin 100 μg/ml where present",0.26%
same,% survival at 5 min,"Helicobacter pylori; strain ATCC43579, pH 7.0, citrate 1.0% w/v, nisin 100 μg/ml where present",0.02%
same,% survival at 1 min,"Escherichia coli; 0.1% w/v citrate pH 3.5, initial 5 × 10^7 cfu/ml",100%
same,% survival at 1 min,"Escherichia coli; 0.3% w/v citrate pH 3.5, initial 5 × 10^7 cfu/ml",56.3%
same,% survival at 1 min,"Escherichia coli; 1.0% w/v citrate pH 3.5, initial 5 × 10^7 cfu/ml",72.9%
same,% survival at 1 min,"Escherichia coli; 3.0% w/v citrate pH 3.5, initial 5 × 10^7 cfu/ml",100%
same,survival of E. coli on exposure to the agent by itself,Escherichia coli; agent by itself,unaffected
"CC(O)C(=O)O (centres unmarked) [Lactate, lactate]",% survival at 1 min,"Escherichia coli; 0.1% w/v lactate pH 3.5, initial 5 × 10^7 cfu/ml",22.2%
same,% survival at 1 min,"Escherichia coli; 0.3% w/v lactate pH 3.5, initial 5 × 10^7 cfu/ml",46.7%
same,% survival at 1 min,"Escherichia coli; 1.0% w/v lactate pH 3.5, initial 5 × 10^7 cfu/ml",35.6%
same,% survival at 1 min,"Escherichia coli; 3.0% w/v lactate pH 3.5, initial 5 × 10^7 cfu/ml",4.2%
